In ChEMBL document CHEMBL4251725, “Azabicyclic Fused Pyrimidine Derivatives Useful for the Treatment of Alzheimer's Disease” (ACS Med Chem Lett, 2018) one finds EC50 data, which are given here for 2 compounds.

The target in this assay is Gamma-secretase. Put plainly: Inhibition of gamma-secretase in human H4 cells harboring APP695 K595N/M596L swedish mutant after 24 hrs by AlphaLisa assay. It counts as cell-based.

By EC50 is commonly meant the concentration at which the effect is half-maximal. Lower therefore signals higher potency in that assay. With `CNc1nc(Nc2ccc(-n3cnc(C)n3)c(F)c2)nc2c1C(C)(C)CCN2c1ccc(F)cc1`, the EC50 came out at 0.008 µM.

Consider `CNc1nc(Nc2ccc(-n3cnc(C)c3)c(OC)c2)nc2c1C(C)(C)CN2C1CC(F)(F)C1`, for which a half-maximal response (EC50) required 0.014 µM.
